Read-outs that look alike come from different tables or passages of the source.
Legend:
C32 human melanoma cells = experiment: cell viability in the C32 cell-based assay (Viability, C32 IC50); settings: concentration causing 50% cell death, values greater than 10 represent a lack of cell death
In short: (§1)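 Cell death was scored within the cell-based GM3 experiment for each line. The viability value is the concentration producing 50% death, and numbers exceeding 10 signify no cytotoxicity.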

[1] = tested on: GM3 expression on the cell surface, C32 human melanoma cells; experiment: cell based phenotypic assay, cell surface GM3 by antibody mediated immunofluorescence, C32 (GM3 C32 IC50); settings: 50% inhibition of GM3 expression on the cell surface
In short: (§2)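 Two melanoma lines, mouse B16 and human C32, were treated and surface GM3 quantified by antibody immunofluorescence for IC50. A parallel viability readout gives the concentration killing 50% of cells, with values over 10 indicating no cell death.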

[2] = tested on: GM3 expression on the cell surface, B16 mouse melanoma cells; experiment: cell based phenotypic assay, cell surface GM3 by antibody mediated immunofluorescence, B16 (GM3 B16 IC50); settings: 50% inhibition of GM3 expression on the cell surface
In short: as §2

B16 mouse melanoma cells = experiment: cell viability in the B16 cell-based assay (Viability, B16 IC50)
In short: as §1

[3] = biological target: T1, glucosylceramide synthase (Homo sapiens, UniProt Q16739); experiment: microsomal assay measuring conversion of ceramide to glucosylceramide by HPLC (GCS IC50); assay type: biochemical; settings: concentration causing 50% inhibition of glucosylceramide synthase activity
T1 construct: Microsomes were isolated from A375 human melanoma cells; endogenous in cells; host or cells: A375 human melanoma cells (microsomal fraction, 100,000 g pellet)
T1 sequence (Q16739 1-394): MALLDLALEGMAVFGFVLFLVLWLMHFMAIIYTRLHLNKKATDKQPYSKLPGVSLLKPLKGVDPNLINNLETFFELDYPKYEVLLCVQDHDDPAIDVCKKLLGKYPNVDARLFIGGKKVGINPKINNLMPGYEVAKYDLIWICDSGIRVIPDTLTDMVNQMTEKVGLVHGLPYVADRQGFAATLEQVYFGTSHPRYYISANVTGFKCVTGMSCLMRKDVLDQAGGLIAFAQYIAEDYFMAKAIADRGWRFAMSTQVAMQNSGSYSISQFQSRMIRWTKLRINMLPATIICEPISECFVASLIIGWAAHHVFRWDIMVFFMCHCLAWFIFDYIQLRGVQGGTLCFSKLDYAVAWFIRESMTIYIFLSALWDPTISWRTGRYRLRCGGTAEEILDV
In short: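 IC50 is the compound concentration halving glucosylceramide synthase activity. Activity was measured in microsomes, with HPLC quantifying glucosylceramide formed from ceramide.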

[4] = Homo sapiens, C32, C32 cells, read-out: Viability, C32 IC50
[5] = Homo sapiens, C32 human melanoma cells, read-out: GM3 C32 IC50
[6] = Mus musculus, B16 mouse melanoma cells, read-out: GM3 B16 IC50
[7] = Mus musculus, B16, B16 cells, concentration causing 50% cell death, values greater than 10 represent a lack of cell death, read-out: Viability, B16 IC50
[8] = Homo sapiens, C32, read-out: Viability, C32 IC50, C32 cells
[9] = Homo sapiens, read-out: GM3 C32 IC50, C32 human melanoma cells
[10] = Mus musculus, read-out: GM3 B16 IC50, B16 mouse melanoma cells
[11] = Mus musculus, B16, read-out: Viability, B16 IC50
[12] = read-out: Viability, C32 IC50, C32 cells
[13] = read-out: GM3 C32 IC50, C32 human melanoma cells
[14] = read-out: GM3 B16 IC50, B16 mouse melanoma cells
[15] = C32 cells, read-out: Viability, C32 IC50
[16] = C32 human melanoma cells, read-out: GM3 C32 IC50
[17] = B16 mouse melanoma cells, read-out: GM3 B16 IC50

IC50 [1, 5] [nM] | IC50 [2, 6] [nM] | IC50 [3] [nM] | SMILES | IC50 (C32 human melanoma cells; [4]) [nM] | IC50 (B16 mouse melanoma cells; [7]) [nM] | other results
4.78 | 67.3 | 30.4 | CC(C)(NC(=O)OC1CCN2CCC1CC2)c1ccc(-c2ccc(C(=O)N3CC(F)(F)C3)cc2)cc1 (centres unmarked) [Example 274, 1-Aza-bicyclo[3.2.2]nonan-4-yl 2-(4′-(3,3-difluoroazetidine-1-carbonyl)biphenyl-4-yl)propan-2-ylcarbamate] | 1000 | ≥ 10000 | –
29.6 | 1530 | 20 | CC(C)(NC(=O)NC1(C)CCN2CCC1CC2)c1cccc(Oc2cccc(C(=O)N3CCOCC3)c2)c1 (centres unmarked) [Example 276, 1-(4-Methyl-1-azabicyclo[3.2.2]nonan-4-yl)-3-(2-(3-(3-(morpholine-4-carbonyl)phenoxy)phenyl)propan-2-yl)urea] | 3160 | ≥ 10000 | –
53 | 1440 | 593 | CC(C)(NC(=O)OC1CCN2CCC1CC2)c1cccc(Oc2cccc(C(=O)N3CCOCC3)c2)c1 (centres unmarked) [Example 278, 1-Aza-bicyclo[3.2.2]nonan-4-yl 2-(3-(3-(morpholine-4-carbonyl)phenoxy)phenyl)propan-2-ylcarbamate] | ≥ 10000 | ≥ 10000 | –
7.79 | 440 | 31.6 | CC(C)(NC(=O)NC1(C)CCN2CCC1CC2)c1ccc(Oc2ccc(C(=O)N3CCOCC3)cc2)cc1 (centres unmarked) [Example 281, 1-(4-Methyl-1-azabicyclo[3.2.2]nonan-4-yl)-3-(2-(4-(4-(morpholine-4-carbonyl)phenoxy)phenyl)propan-2-yl)urea] | 1000 | ≥ 10000 | –
40.4 | 660 | 479 | CC(C)(NC(=O)OC1CCN2CCC1CC2)c1ccc(Oc2ccc(C(=O)N3CCOCC3)cc2)cc1 (centres unmarked) [Example 282, 1-Azabicyclo[3.2.2]nonan-4-yl 2-(4-(4-(morpholine-4-carbonyl)phenoxy)phenyl)propan-2-ylcarbamate] | 3160 | ≥ 10000 | –
– | – | 16.3 | CN(C)C(=O)c1ccc(Oc2ccc(C(C)(C)NC(=O)NC3(C)CCN4CCC3CC4)cc2)cc1 (centres unmarked) [Example 285, N,N-Dimethyl-4-(4-(2-(3-(4-methyl-1-azabicyclo[3.2.2]nonan-4-yl)ureido)propan-2-yl)phenoxy)benzamide] | – | ≥ 10000 | IC50 (C32 human melanoma cells; [15]): 1000 nM; IC50 [1, 16]: 6.48 nM; IC50 [2, 17]: 725 nM
31.6 | 793 | 437 | CN(C)C(=O)c1ccc(Oc2ccc(C(C)(C)NC(=O)OC3CCN4CCC3CC4)cc2)cc1 (centres unmarked) [Example 286, 1-Azabicyclo[3.2.2]nonan-4-yl 2-(4-(4-(dimethylcarbamoyl)phenoxy)phenyl)propan-2-ylcarbamate] | ≥ 10000 | ≥ 10000 | –
50.2 | 1180 | 203 | CN(C)C(=O)c1cccc(Oc2cccc(C(C)(C)NC(=O)OC3CCN4CCC3CC4)c2)c1 (centres unmarked) [Example 288, 1-Aza-bicyclo[3.2.2]nonan-4-yl 2-(3-(3-(dimethylcarbamoyl)phenoxy)phenyl)propan-2-ylcarbamate] | ≥ 10000 | ≥ 10000 | –
– | – | 19.1 | CN(C)C(=O)c1ccc(Oc2ccc(C(C)(C)NC(=O)NC3(C)CCN4CCC3CC4)cc2)cc1 (centres unmarked) [Example 290, N,N-Dimethyl-4-(4-(2-(3-(4-methyl-1-aza-bicyclo[3.2.2]nonan-4-yl)ureido)propan-2-yl)phenoxy)benzamide] | – | – | IC50 (C32 human melanoma cells; [15]): 3160 nM; IC50 [1, 16]: 26.8 nM; IC50 [2, 17]: 2580 nM; IC50 (B16 mouse melanoma cells; B16 cells, concentration causing 50% cell death, values greater than 10 represent a lack of cell death, read-out: Viability, B16 IC50): ≥ 10000 nM
41.2 | 1220 | 207 | CNC(=O)c1ccc(Oc2ccc(C(C)(C)NC(=O)OC3CCN4CCC3CC4)cc2)cc1 (centres unmarked) [Example 292, 1-Aza-bicyclo[3.2.2]nonan-4-yl 2-(4-(4-(methylcarbamoyl)phenoxy)phenyl)propan-2-ylcarbamate] | ≥ 10000 | ≥ 10000 | –

SMILES | IC50 [1, 5] [nM] | IC50 [2, 6] [nM] | IC50 [3] [nM] | IC50 (C32 human melanoma cells; [4]) [nM] | IC50 (B16 mouse melanoma cells; [7]) [nM] | other results
CCC1(NC(=O)NC(C)(C)c2ccc(-c3ccc(C(=O)N4CC(F)(F)C4)cc3)cc2)CN2CCC1CC2 (centres unmarked) [Example 275, 1-(2-(4′-(3,3-Difluoroazetidine-1-carbonyl)biphenyl-4-yl)propan-2-yl)-3-(3-ethylquinuclidin-3-yl)urea] | 2.92 | 55.4 | 75.6 | 1000 | ≥ 10000 | –
CC(C)(NC(=O)NC1(C)CN2CCC1CC2)c1cccc(Oc2cccc(C(=O)N3CCOCC3)c2)c1 (centres unmarked) [Example 277, 1-(3-Methylquinuclidin-3-yl)-3-(2-(3-(3-(morpholine-4-carbonyl)phenoxy)phenyl)propan-2-yl)urea] | 80.1 | 2030 | 91.7 | ≥ 10000 | ≥ 10000 | –
CC(C)(NC(=O)OC1CN2CCC1CC2)c1cccc(Oc2cccc(C(=O)N3CCOCC3)c2)c1 (centres unmarked) [Example 279, Quinuclidin-3-yl 2-(3-(3-(morpholine-4-carbonyl)phenoxy)phenyl)propan-2-ylcarbamate] | – | – | 4330 | – | – | IC50 (C32 human melanoma cells; [8]): 3160 nM; IC50 [1, 9]: 217 nM; IC50 [2, 10]: 3920 nM; IC50 (B16 mouse melanoma cells; [11]): ≥ 10000 nM
CC(C)(NC(=O)NC1(C)CN2CCC1CC2)c1ccc(Oc2ccc(C(=O)N3CCOCC3)cc2)cc1 (centres unmarked) [Example 280, 1-(3-Methylquinuclidin-3-yl)-3-(2-(4-(4-(morpholine-4-carbonyl)phenoxy)phenyl)propan-2-yl)urea] | 49.1 | 1940 | 164 | 1000 | ≥ 10000 | –
CN(C)C(=O)c1ccc(Oc2ccc(C(C)(C)NC(=O)OC3CN4CCC3CC4)cc2)cc1 (centres unmarked) [Example 283, Quinuclidin-3-yl 2-(4-(4-(dimethylcarbamoyl)phenoxy)phenyl)propan-2-ylcarbamate] | – | – | 606 | – | – | IC50 (C32 human melanoma cells; [12]): ≥ 10000 nM; IC50 [1, 13]: 114 nM; IC50 [2, 14]: 1030 nM; IC50 (B16 mouse melanoma cells; [11]): ≥ 10000 nM
CN(C)C(=O)c1ccc(Oc2ccc(C(C)(C)NC(=O)NC3(C)CN4CCC3CC4)cc2)cc1 (centres unmarked) [Example 284, N,N-Dimethyl-4-(4-(2-(3-(3-methylquinuclidin-3-yl)ureido)propan-2-yl)phenoxy)benzamide] | 60.7 | 3780 | 201 | ≥ 10000 | ≥ 10000 | –
CN(C)C(=O)c1ccc(Oc2ccc(C(C)(C)NC(=O)OC3CN4CCC3CC4)cc2)cc1 (centres unmarked) [Example 287, Quinuclidin-3-yl 2-(4-(4-(dimethylcarbamoyl)phenoxy)phenyl)propan-2-ylcarbamate] | – | – | 1330 | – | – | IC50 (C32 human melanoma cells; [12]): 3160 nM; IC50 [1, 13]: 229 nM; IC50 [2, 14]: 2200 nM; IC50 (B16 mouse melanoma cells; read-out: Viability, B16 IC50, B16 cells, concentration causing 50% cell death, values greater than 10 represent a lack of cell death): ≥ 10000 nM
CN(C)C(=O)c1cccc(Oc2cccc(C(C)(C)NC(=O)NC3(C)CN4CCC3CC4)c2)c1 (centres unmarked) [Example 289, N,N-Dimethyl-3-(3-(2-(3-(3-methylquinuclidin-3-yl)ureido)propan-2-yl)phenoxy)benzamide] | 91.7 | 1410 | 104 | ≥ 10000 | 9260 | –
CNC(=O)c1ccc(Oc2ccc(C(C)(C)NC(=O)OC3CN4CCC3CC4)cc2)cc1 (centres unmarked) [Example 291, Quinuclidin-3-yl 2-(4-(4-(methylcarbamoyl)phenoxy)phenyl)propan-2-ylcarbamate] | – | – | 1910 | – | – | IC50 (C32 human melanoma cells; [8]): 3160 nM; IC50 [1, 9]: 90.2 nM; IC50 [2, 10]: 2310 nM; IC50 (B16 mouse melanoma cells; [11]): ≥ 10000 nM

Reference: patent US12060349B2, “Glucosylceramide synthase inhibitors” (Genzyme Corporation, priority 2012, dated 2024)
